The text below walks through data of ChEMBL document CHEMBL4184125, “SIRT1 activator isolated from artificial gastric juice incubate of total saponins in stems and leaves of Panax ginseng” (Bioorg Med Chem Lett, 2018).

Activity calls are given as the source filed them. The rule behind the calls is not given here.

Test [1] deals with T1, NAD-dependent protein deacetylase sirtuin-1 (Homo sapiens) (UniProt Q96EB6).
T1 sequence (whole entry): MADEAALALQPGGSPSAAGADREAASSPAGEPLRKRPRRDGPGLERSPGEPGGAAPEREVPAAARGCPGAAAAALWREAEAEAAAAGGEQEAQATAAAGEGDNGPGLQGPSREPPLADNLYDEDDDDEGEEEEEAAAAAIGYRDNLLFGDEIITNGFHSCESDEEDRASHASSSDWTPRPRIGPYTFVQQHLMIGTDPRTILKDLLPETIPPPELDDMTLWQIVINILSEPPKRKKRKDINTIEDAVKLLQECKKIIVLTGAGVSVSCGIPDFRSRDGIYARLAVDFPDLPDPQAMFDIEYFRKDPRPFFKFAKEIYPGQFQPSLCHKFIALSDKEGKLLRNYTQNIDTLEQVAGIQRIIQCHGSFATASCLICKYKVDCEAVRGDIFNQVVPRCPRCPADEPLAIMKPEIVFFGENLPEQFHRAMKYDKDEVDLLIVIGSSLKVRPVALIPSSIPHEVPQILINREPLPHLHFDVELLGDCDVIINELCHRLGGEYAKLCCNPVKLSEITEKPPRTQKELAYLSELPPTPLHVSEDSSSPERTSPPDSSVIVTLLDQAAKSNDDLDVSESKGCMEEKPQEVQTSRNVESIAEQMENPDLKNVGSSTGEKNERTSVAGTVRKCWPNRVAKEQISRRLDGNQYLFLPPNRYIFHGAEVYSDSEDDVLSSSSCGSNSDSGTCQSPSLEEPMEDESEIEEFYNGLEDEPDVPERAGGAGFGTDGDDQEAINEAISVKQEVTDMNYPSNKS
The test is described as follows: Activation of SIRT1 (unknown origin) assessed as Fluor de Lys deacetylation at 10 to 20 uM incubated for 5 mins followed by substrate addition measured after 45 mins in presence of NAD/NADH by fluorescence assay.

Test [2] has as its target T1, NAD-dependent protein deacetylase sirtuin-1 (Homo sapiens). The test is described as follows: Inhibition of SIRT1 (unknown origin) assessed as reduction in Fluor de Lys deacetylation at 10 to 20 uM incubated for 5 mins followed by substrate addition measured after 45 mins in presence of NAD/NADH by fluorescence assay.

For the molecule `CC(C)=CCC[C@](C)(O)[C@H]1CC[C@]2(C)[C@@H]1[C@H](O)C[C@@H]1[C@@]3(C)CC[C@H](O)C(C)(C)[C@@H]3CC[C@]12C`, the outcome in test [1] was Active.
As for `CC(C)=CCC[C@](C)(O)[C@H]1CC[C@]2(C)[C@@H]1[C@H](O)C[C@@H]1[C@@]3(C)CC[C@H](O[C@@H]4O[C@H](CO)[C@@H](O)[C@H](O)[C@H]4O)C(C)(C)[C@@H]3CC[C@]12C`, the inhibition result in test [2] was “inactive”. Moreover, the outcome in test [1] was Active.
On the same counts, the results for `CC(C)=CCC[C@](C)(O)[C@H]1CC[C@]2(C)[C@@H]1[C@H](O)C[C@@H]1[C@@]3(C)CC[C@H](O[C@@H]4O[C@H](CO)[C@@H](O)[C@H](O)[C@H]4O[C@@H]4O[C@H](CO)[C@@H](O)[C@H](O)[C@H]4O)C(C)(C)[C@@H]3CC[C@]12C` are “inactive” and “Active”.
For the molecule `Oc1ccc(/C=C/c2cc(O)cc(O)c2)cc1`, in test [2], the inhibition result was “inactive”.
Take `NC(=O)c1cccnc1`: the inhibition entry in test [2] was “inactive”.
For `C=C(CCC=C(C)C)[C@H]1CC[C@]2(C)[C@@H]1[C@H](O)C[C@@H]1[C@@]3(C)CC[C@H](O)C(C)(C)[C@@H]3[C@@H](O[C@@H]3O[C@H](CO)[C@@H](O)[C@H](O)[C@H]3O)C[C@]12C`, in test [2], the inhibition result was “inactive”. Also, the outcome in test [1] was Active.
On to `CC(C)=CCC[C@@](C)(O)[C@H]1CC[C@]2(C)[C@@H]1[C@H](O)C[C@@H]1[C@@]3(C)CC[C@H](O)C(C)(C)[C@@H]3[C@@H](O[C@@H]3O[C@H](CO)[C@@H](O)[C@H](O)[C@H]3O[C@@H]3O[C@@H](C)[C@H](O)[C@@H](O)[C@H]3O)C[C@]12C`, for which the inhibition result in test [2] was “inactive”.
As for `CC(C)(O)CCC[C@@](C)(O)[C@H]1CC[C@]2(C)[C@@H]1[C@H](O)C[C@@H]1[C@@]3(C)CC[C@H](O)C(C)(C)[C@@H]3[C@@H](O)C[C@]12C`, the inhibition result in test [2] is “inactive”. The outcome in test [1] was inactive.
As to `C/C(=C\CCC(C)(C)O)[C@H]1CC[C@]2(C)[C@@H]1[C@H](O)C[C@@H]1[C@@]3(C)CC[C@H](O[C@@H]4O[C@H](CO)[C@@H](O)[C@H](O)[C@H]4O)C(C)(C)[C@@H]3[C@@H](O)C[C@]12C`, the inhibition entry in test [2] was “inactive”.
As to `CC(C)(O)CCC[C@](C)(O)[C@H]1CC[C@]2(C)[C@@H]1[C@H](O)C[C@@H]1[C@@]3(C)CC[C@H](O)C(C)(C)[C@@H]3[C@@H](O)C[C@]12C`, the inhibition result in test [2] is “inactive”. Moreover, the result in test [1] was inactive.
Take `CCOC(C)(C)CC/C=C(\C)[C@H]1CC[C@]2(C)[C@@H]1[C@H](O)C[C@@H]1[C@@]3(C)CC[C@H](O)C(C)(C)[C@@H]3[C@@H](O)C[C@]12C`: the inhibition entry in test [2] was “inactive”.
On the same count and under the same terms, in the case of `CC(C)=CCC[C@](C)(O)[C@H]1CC[C@]2(C)[C@@H]1[C@H](O)C[C@@H]1[C@@]3(C)CC[C@H](O)C(C)(C)[C@@H]3[C@@H](O[C@@H]3O[C@H](CO)[C@@H](O)[C@H](O)[C@H]3O[C@@H]3O[C@@H](C)[C@H](O)[C@@H](O)[C@H]3O)C[C@]12C` it was “inactive”.
For `CC(C)=CCC[C@](C)(O)[C@H]1CC[C@]2(C)[C@@H]1[C@H](O)C[C@@H]1[C@@]3(C)CC[C@H](O[C@@H]4O[C@H](CO)[C@@H](O)[C@H](O)[C@H]4O)C(C)(C)[C@@H]3[C@@H](O)C[C@]12C`, the inhibition result in test [2] was “inactive”. Further, the outcome in test [1] was Active.
For `C/C(=C/CC[C@@](C)(O)[C@H]1CC[C@]2(C)[C@@H]1[C@H](O)C[C@@H]1[C@@]3(C)CC[C@H](O)C(C)(C)[C@@H]3[C@@H](O)C[C@]12C)CO`, in test [2], the inhibition result was “inactive”.
Same read-out and setting: in the case of `CC(C)=CCC[C@@](C)(O)[C@H]1CC[C@]2(C)[C@@H]1[C@H](O)C[C@@H]1[C@@]3(C)CC[C@H](O[C@@H]4O[C@H](CO)[C@@H](O)[C@H](O)[C@H]4O)C(C)(C)[C@@H]3[C@@H](O)C[C@]12C` it was “inactive”.
On to `CC(C)=CC/C=C(\C)[C@H]1CC[C@]2(C)[C@@H]1[C@H](O)C[C@@H]1[C@@]3(C)CC[C@H](O)C(C)(C)[C@@H]3[C@@H](O[C@@H]3O[C@H](CO)[C@@H](O)[C@H](O)[C@H]3O)C[C@]12C`, for which the inhibition result in test [2] is “inactive”. The outcome in test [1] was Active.
On the same counts, the results for `CC(C)=CCC[C@](C)(O[C@@H]1O[C@H](CO)[C@@H](O)[C@H](O)[C@H]1O)[C@H]1CC[C@]2(C)[C@@H]1[C@H](O)C[C@@H]1[C@@]3(C)CC[C@H](O)C(C)(C)[C@@H]3[C@@H](O)C[C@]12C` are “inactive” and “Active”.
On the same counts, the results for `CC(C)=CCC[C@@](C)(O)[C@H]1CC[C@]2(C)[C@@H]1[C@H](O)C[C@@H]1[C@@]3(C)CC[C@H](O[C@@H]4O[C@H](CO)[C@@H](O)[C@H](O)[C@H]4O[C@@H]4O[C@H](CO)[C@@H](O)[C@H](O)[C@H]4O)C(C)(C)[C@@H]3CC[C@]12C` are “inactive” and “Active”.
On the same counts, the results for `CC(C)=CC/C=C(\C)[C@H]1CC[C@]2(C)[C@@H]1[C@H](O)C[C@@H]1[C@@]3(C)CC[C@H](O[C@@H]4O[C@H](CO)[C@@H](O)[C@H](O)[C@H]4O[C@@H]4O[C@H](CO)[C@@H](O)[C@H](O)[C@H]4O)C(C)(C)[C@@H]3CC[C@]12C` are “inactive” and “Active”.
For the molecule `CC(C)=CCC[C@@](C)(O)[C@H]1CC[C@]2(C)[C@@H]1[C@H](O)C[C@@H]1[C@@]3(C)CC[C@H](O[C@@H]4O[C@H](CO)[C@@H](O)[C@H](O)[C@H]4O)C(C)(C)[C@@H]3CC[C@]12C`, the inhibition entry in test [2] was “inactive”.
With `C=C(CCC=C(C)C)[C@H]1CC[C@]2(C)[C@@H]1[C@H](O)C[C@@H]1[C@@]3(C)CC[C@H](O)C(C)(C)[C@@H]3[C@@H](O[C@@H]3O[C@H](CO)[C@@H](O)[C@H](O)[C@H]3O[C@@H]3O[C@@H](C)[C@H](O)[C@@H](O)[C@H]3O)C[C@]12C`, the inhibition result in test [2] was “inactive”.
Same read-out and setting: under `C/C(=C\CCC(C)(C)O)[C@H]1CC[C@]2(C)[C@@H]1[C@H](O)C[C@@H]1[C@@]3(C)CC[C@H](O)C(C)(C)[C@@H]3[C@@H](O)C[C@]12C` stands “inactive”; under `C/C(=C/CCC(C)(C)O)[C@H]1CC[C@]2(C)[C@@H]1[C@H](O)C[C@@H]1[C@@]3(C)CC[C@H](O)C(C)(C)[C@@H]3[C@@H](O)C[C@]12C`, “inactive”.
